Results from US7026135B2, “Biotin-peg-substrate for a lipase assay” (Amersham Biosciences UK Limited, priority 2000, dated 2006).

How the values were obtained:
Assay type in all cases: biochemical
lipase [1] = experiment: lipase assay, 96-well SPA format, 'on bead'; details: YSi beads, 5 nM lipase, room temperature, 60 minutes, read-out: IC50 inhibition of lipase activity
Description: 96-well SPA format. Using an ‘on bead’ assay format, 180 nM lipase substrate (i.e. HSL substrate prepared by the method described in Example 1) was added to streptavidin coated yttrium silicate (YSi) beads (Amersham Pharmacia Biotech) at 5 mg/ml and 10% (v/v) Triton™ X-100 in the ratio of 1:3:2. Triton X-100 was added to prevent non-specific binding of the tritiated product to beads. Assays contained 20 μl substrate precoated SPA beads (6 nM lipase substrate, 50 μg beads, 0.67% (v/v) Triton X-100), 5 nM lipase and assay buffer (50 mM Hepes, pH 7.5, 1 mM dithioerythritol (DTE) and 0.001% (v/v) C13E12) in a volume of 100 μl. In ‘no enzyme’ controls, approximately 15000 SPA cpm were obtained. After incubation for 60 minutes at room temperature with agitation, assays were stopped by the addition of 100 μl 0.1M sodium citrate/citric acid, pH 4.0 and counted on a TopCount™ microplate scintillation counter (Packard Instruments Co., Meriden, Conn., USA).
Development of a lipase assay using a 96-well SPA assay format. Enzyme titrations were set up using ‘on’ and ‘off’ bead assay formats. In the ‘off’ bead format, the lipase substrate was not precoated onto SPA beads; instead the beads were added at the same time as the stop solution. […] It is thought that the binding of the substrate to the bead surface produced an artificial membrane environment necessary for optimal enzyme activity (FIG. 2). […]

lipase [2] = experiment: lipase assay, 384-well SPA format (YSi SPA beads); details: 30 nM lipase, room temperature, 60 minutes, read-out: IC50 inhibition of lipase activity
Description: (§1) 384-well SPA and LEADseeker formats. 180 nM lipase substrate was added to streptavidin coated YSi beads at 10 mg/ml and 10% (v/v) Triton™ X-100 in the ratio of 2:3:1. Assays contained […] substrate precoated streptavidin YSi SPA beads or streptavidin yttrium oxide (YOx) LEADseeker beads (Amersham Pharmacia Biotech) (24 nM lipase substrate, 50 μg beads, 0.67% (v/v) Triton X-100), 30 nM lipase and assay buffer in a volume of 25 μl. In ‘no enzyme’ controls, approximately 6000 SPA cpm and 600 IOD's (Integrated Optical Density) were obtained. After incubation for 60 minutes at room temperature with agitation, assays were stopped by the addition of 25 μl 0.1M sodium citrate/citric acid, pH 4.0 and counted on either on a TopCount microplate scintillation counter (Packard Instruments Co., Meriden, Conn., USA) or imaged on LEADseeker (Amersham Pharmacia Biotech).
(§2) Miniaturization of the lipase assay to 384-well format using SPA and LEADseeker. Using a reduced assay volume an enzyme titration was performed with YSi SPA beads and YOx LEADseeker beads (FIG. 5). Different profiles were obtained using the two assay formats and this may be a result of how the substrate is presented on the surface of the two bead types.
(§3) 30 nM lipase was used and assays were incubated at room temperature for 60 minutes.

lipase [3] = experiment: lipase assay, 384-well LEADseeker format (YOx LEADseeker beads); details: 30 nM lipase, room temperature, 60 minutes, read-out: IC50 inhibition of lipase activity
Description: as §1, §2, §3

IC50 (lipase [1]): 27.5 µM
IC50 (lipase [2]): 32.3 µM
IC50 (lipase [3]): 18.2 µM
Compound: CC[C@@H](C)[C@@H](O)[C@H](C)C(=O)[C@H](C)/C=C(\C)C[C@H](C)[C@@H]1OC(=O)[C@H]1CC [Ebelactone B]
